Laboratory results from patent US6544750B1, “Peptide analogs as selective inhibitors of thrombin activation of protease activated receptor 1” (Thromgen, Inc., priority 1999, dated 2003).
Ends that are not written are not given here.

Legend:
[1] = system: platelets (platelet-rich plasma); test: γ-thrombin-induced platelet aggregation in platelet-rich plasma; type: cell-based, human; conditions: for Fold Increase in Aggregation Inhibition over RPPGF: RGDO4C sublibrary, γ-thrombin, compared to RPPGF at 0.2 mM
Procedure: Fresh whole blood was collected and mixed with 0.013 M sodium citrate and platelet-rich plasma was prepared according to the method of Meloni et al., J. Biol. Chem. 266, 6786 (1991). Platelet-rich plasma with a normalized platelet count between 2-2.5×10^8 platelets/ml was added to a cuvette of an aggregometer (Chronlog Corp., Havertown, Pa.), standardized using the protocol of Meloni et al., supra. Peptides to be examined were added to the cuvette and the mixture stabilized for a few moments. Once the baseline was stabilized, γ-thrombin (10-70 NM) (Haematologic Technologies, Essex Junction, Vt.) was added to determine the minimal concentration of the agonist necessary to achieve full platelet aggregation. All investigations with peptides were performed using threshold concentrations of γ-thrombin. Aggregation was allowed to proceed for 5 minutes before stopping. When ADP-induced platelet aggregation studies were performed, 1-5 μM ADP (Sigrna) was added to the cuvette containing platelet-rich plasma.

[2] = system: Normal human lung fibroblasts (NHLF); test: α-thrombin-induced calcium mobilization in fibroblasts (fura-2); type: cell-based; conditions: 0.2 mM peptide; for Ca2+ % Inhibition At 0.2 mM Peptide: thrombin-induced calcium mobilization in fibroblasts
Procedure: The second assay developed to assess peptides from the combinatorial libraries uses inhibition of α-thrombin-induced calcium mobilization in fibroblasts. Normal human lung fibroblasts (NHLF) were purchased from Clonetics, San Diego, Calif., an affiliate of Bio-Wittaker, Walkersville, Md. The cytoplasmic free Ca^2+ concentration ([Ca^2+]i) was measured using the fluorescent Ca^2+ indicator fura-2 (Molecular Probes, Inc., Eugene, Oreg.). Suspension of fibroblasts in Hepes-Tyrode's buffer were loaded with fura-2 by incubation at 37° C. with 2 μM fura-2/acetoxymethyl ester for 45 minutes according to the method of Rasmussen et al., J. Biol. Chem. 268, 14322 (1993). The labeled fibroblasts were separated from excess probe by washing by centrifugation at 1000 rpm (180×g). Aliquots of the labeled fibroblasts were transferred into a quartz cuvette with a magnetic stirrer, which was then placed in a thennostatically controlled chamber at 37° C. in a fluorescence spectrophotometer (Perkin-Elmer LS50B spectrofluorometer, Chicago, Ill.). Reagents, test peptide (SEQ ID NO: 5) (from 0.2 mM to effective lower concentration), and α-thrombin (2-4 nM), were sequentially added directly to the cuvette. The excitation wavelengths varied between 340 and 380 nm. Fluorescence was measured by recording emitted light at 510 nm as reported by Fisher et al., Mol Pharm. 35, 195 (1989). The minimum emission was determined on a solubilized fibroblast sample in the presence of 10 mM EDTA; maximum emission was determined on the same sample with 10 mM Ca^2+ added. The intrafibroblast free Ca^2+ concentration was calculated by the method of Grykiewicz et al., J. Biol. Chem. 260, 3440 (1985). The ratio of the fluorescence readings was calculated as R=340/380 nm and processed according to the equation [Ca^2+]i=KD((R−Rmim)/Rmax−R)) (Sf2/Sb2) to determine the intrafibroblast free Ca^2+ concentration. The KD for fura-2 was assumed to be 224 nM. Rmax and Rmin are the maximum and minimum fluorescence ratios measured at the end of the experiment, respectively; Sf2 and Sb2 are the fluorescence values at 380 nm in the absence and presence of saturating [Ca 2+], respectively. The reaction was monitored for 3-5 minutes. […] In FIG. 4, peptide RGDWC (SEQ ID NO: 20) at 0.2 mM inhibited 31% of 4 nM α-thrombin-induced Ca^2+ mobilization in fibroblasts.

[3] = target: biotin-NAT12 (NATLDPRSFLLR, peptide from PAR1) (Homo sapiens, UniProt P25116); test: Biotin-NAT12 binding assay to peptides coupled to microtiter plates; conditions: relative to RPPGF given arbitrary binding level of 1
Procedure: A third assay was developed to ascertain the ability of biotin-NAT12 (NATLDPRSFLLR, SEQ ID NO: 41) to directly bind to peptides linked to microtiter plates. In this assay, peptide analogs were linked to microtiter plate cuvette wells by incubation of the peptide in 0.1 M Na2CO3, pH 9.6 buffer overnight at 4° C. After coupling the peptide to the cuvette well, the wells were dumped and each well was blocked with 1% bovine serun albumin in 0.01 M Na3PO4, 0.15 M NaCl, at pH 7.4. After incubation for 1 hour, the wells were dumped and washed three times with PBS-Tween. The wells were then incubated with biotin-NAT12. The amount of biotin-NAT12 bound was determined by adding streptavidin-peroxidase followed by adding turbo TMB (Pierce).
In decreasing order of binding level, these peptides include: RGKSC, RGKMC, RGKHC, RGKKC, RGKFC, RGKLC, RGKWC, and RGKVC (SEQ ID NOS 18, 7, 13, 14, 11, 1, 5 and 19, respectively). […] The best to least RGDO4C (SEQ ID NO: 44) peptides to bind biotin-NAT12 listed in Table VI are: RGDSC, RGDGC, RGDQC, RGDEC, RGDIC, RGDPC, RGDDC, and RGDYC (SEQ ID NOS 34, 28, 23, 22, 36, 38, 27 and 35, respectively). A solid phase peptide-peptide binding assay was used to determine biotin-NAT12 binding to library peptides. Test peptides in 0.1 M Na2CO3, pH 9.6 buffer, at 10 μg/well in 50 μl volume, were coupled to microtiter plate wells by overnight incubation at 4° C. After incubation, the contents of the wells were discarded and the wells were washed with a pH 7.4 buffer containing 0.01 M Na3PO4, 0.15 M NaCl, and 0.01% Tween 20. After blocking each well with 1% radioimmunoassay grade bovine serum albumin, the linked peptides were incubated with 100 μl of 100 μM biotin-NAT12 for 1 hour at 37° C. After incubation, the contents of the wells were dumped and the wells were washed three times (100 μl/well each time) with the buffer identified above. Each well then was incubated with 100 μl of 2 μg/ml solution of Immuno-Pure streptoavidin horeseradish peroxidase conjugate (Pierce Chemical Co., […], Ill.) for 1 hour at room temperature. The contents of the wells were discarded and the wells were washed three times as described above. The wells were then incubated with 100 μl of peroxidase-specific fast reacting substrate, turbo-3,3′,5,5′-tetramethylbenzidine (turbo-TMB, Pierce) for 5 minutes at room temperature and the developing color reaction was stopped by the addition of 100 μof 1 M phosphoric acid. The absorbance was measured at 450 nm using a Microplate Auto Reader EL311 (Bio-Tek, Winooski, Vt.).

Substance | Fold Increase in Aggregation Inhibition over RPPGF [1] | Ca2+ % Inhibition At 0.2 mM Peptide ([2]; RGDO4C sublibrary) | Level of Binding to Biotin-NAT12 ([3]; RGDO4C sublibrary) | Ca2+ % Inhibition At 0.2 mM Peptide ([2]; RGKO4C sublibrary) | Level of Binding to Biotin-NAT12 ([3]; RGKO4C sublibrary) | also measured
Arg-Gly-Asp-Trp-Cys (RGDWC-NH2) [peptide of the H-R-G-D-O4-C-NH2 sublibrary] | 31.7 fold | 31.9% | 0.374 |  |  | concentration down to which peptide inhibited γ-thrombin-induced platelet aggregation ([1]; 70 nM γ-thrombin): ≥ 25 µM; peptide concentration at which γ-thrombin-induced platelet aggregation returned ([1]; 70 nM γ-thrombin): 6.25 µM; peptide concentration that abolished (completely inhibited) γ-thrombin-induced platelet aggregation ([1]; 70 nM γ-thrombin, platelet-rich plasma): 0.2 mM; effect on thrombin-induced Ca2+ mobilization (in words) ([2]; 4 nM α-thrombin): almost had no effect; inhibition of α-thrombin-induced Ca2+ mobilization ([2]; 4 nM α-thrombin, fibroblasts): 31%
RGDAC: peptide of the H-R-G-D-O4-C-NH2 sublibrary (H-RGDAC-NH2) |  | 11% | 0.8 |  |  | 
RGDDC: peptide of the H-R-G-D-O4-C-NH2 sublibrary (H-RGDDC-NH2) | 7.5 fold | 8.9% | 1.11 |  |  | 
RGDEC: peptide of the H-R-G-D-O4-C-NH2 sublibrary (H-RGDEC-NH2) | 20 fold | 1.96% | 1.28 |  |  | 
RGDFC: peptide of the H-R-G-D-O4-C-NH2 sublibrary (H-RGDFC-NH2) | 25 fold | 30.3% | 0.671 |  |  | 
RGDGC: peptide of the H-R-G-D-O4-C-NH2 sublibrary (H-RGDGC-NH2) | 7.5 fold | 9.9% | 1.39 |  |  | 
RGDHC: peptide of the H-R-G-D-O4-C-NH2 sublibrary (H-RGDHC-NH2) | 14.8 fold | 9.9% | 0.759 |  |  | 
RGDIC: peptide of the H-R-G-D-O4-C-NH2 sublibrary (H-RGDIC-NH2) | 3.8 fold | 9.3% | 1.22 |  |  | 
RGDKC: peptide of the H-R-G-D-O4-C-NH2 sublibrary (H-RGDKC-NH2) | 7.5 fold | 28.1% | 0.67 |  |  | 
RGDLC: peptide of the H-R-G-D-O4-C-NH2 sublibrary (H-RGDLC-NH2) | 7.5 fold | 0% | 0.98 |  |  | 
RGDMC: peptide of the H-R-G-D-O4-C-NH2 sublibrary (H-RGDMC-NH2) | 15 fold | 26.2% | 0.87 |  |  | 
RGDNC: peptide of the H-R-G-D-O4-C-NH2 sublibrary (H-RGDNC-NH2) | 5 fold | 44.3% | 0.739 |  |  | 
RGDPC: peptide of the H-R-G-D-O4-C-NH2 sublibrary (H-RGDPC-NH2) |  | 4.13% | 1.12 |  |  | 
RGDQC: peptide of the H-R-G-D-O4-C-NH2 sublibrary (H-RGDQC-NH2) | 15.8 fold | 8.45% | 1.32 |  |  | 
RGKAC: peptide of the H-R-G-K-O4-C-NH2 sublibrary (H-RGKAC-NH2) |  |  |  | 5.2% | 0.689 | 
RGKDC: peptide of the H-R-G-K-O4-C-NH2 sublibrary (H-RGKDC-NH2) |  |  |  | 26.7% | 0.82 | 
RGKEC: peptide of the H-R-G-K-O4-C-NH2 sublibrary (H-RGKEC-NH2) |  |  |  | 13.8% | 0.926 | 
RGKFC: peptide of the H-R-G-K-O4-C-NH2 sublibrary (H-RGKFC-NH2) |  |  |  | 2.74% | 1.5 | 
RGKGC: peptide of the H-R-G-K-O4-C-NH2 sublibrary (H-RGKGC-NH2) |  |  |  | 12.4% | 1.0 | 
RGKHC: peptide of the H-R-G-K-O4-C-NH2 sublibrary (H-RGKHC-NH2) |  |  |  | 31.2% | 2.1 | 
RGKKC: peptide of the H-R-G-K-O4-C-NH2 sublibrary (H-RGKKC-NH2) |  |  |  | 38.9% | 1.8 | 
RGKNC: peptide of the H-R-G-K-O4-C-NH2 sublibrary (H-RGKNC-NH2) |  |  |  | 0% | 1.2 | 
RGKPC: peptide of the H-R-G-K-O4-C-NH2 sublibrary (H-RGKPC-NH2) |  |  |  | 31.13% | 1.2 | 
RGKQC: peptide of the H-R-G-K-O4-C-NH2 sublibrary (H-RGKQC-NH2) |  |  |  | 28% | 0.374 | 
RGKSC: peptide of the H-R-G-K-O4-C-NH2 sublibrary (H-RGKSC-NH2) |  |  |  | 0.01% | 2.2 | 
RGKVC: peptide of the H-R-G-K-O4-C-NH2 sublibrary (H-RGKVC-NH2) |  |  |  | 17.3% | 1.2 | 
